One series addresses T1, FtsZ^EC (Escherichia coli, UniProt P0A9A6).
T1 construct: purified FtsZ; purification not described in main text
T1 sequence (P0A9A6 1-383): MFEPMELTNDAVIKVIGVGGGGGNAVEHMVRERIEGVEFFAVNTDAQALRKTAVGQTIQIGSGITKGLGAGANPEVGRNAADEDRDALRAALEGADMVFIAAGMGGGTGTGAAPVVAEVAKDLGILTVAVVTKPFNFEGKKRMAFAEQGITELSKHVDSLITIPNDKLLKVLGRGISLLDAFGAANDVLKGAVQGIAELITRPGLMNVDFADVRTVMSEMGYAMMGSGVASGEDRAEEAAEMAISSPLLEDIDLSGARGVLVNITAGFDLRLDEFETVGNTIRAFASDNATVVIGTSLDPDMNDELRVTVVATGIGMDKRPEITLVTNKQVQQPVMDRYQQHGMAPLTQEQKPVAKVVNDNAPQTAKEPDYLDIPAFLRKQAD
The series can be described thus: GTPase assay (phosphate release). It counts as biochemical. To be noted: comparison with FtsZ^TO; conditions in supplement.

In a further series the target is T2, FtsZ^TO (Candidatus Thiosymbion oneisti, UniProt I3VI34, I207M).
T2 construct: untagged, expressed from pJW17 (pET11b) in E. coli BL21(DE3) pLysS; anion-exchange purified
T2 sequence (I3VI34 1-397 I207M): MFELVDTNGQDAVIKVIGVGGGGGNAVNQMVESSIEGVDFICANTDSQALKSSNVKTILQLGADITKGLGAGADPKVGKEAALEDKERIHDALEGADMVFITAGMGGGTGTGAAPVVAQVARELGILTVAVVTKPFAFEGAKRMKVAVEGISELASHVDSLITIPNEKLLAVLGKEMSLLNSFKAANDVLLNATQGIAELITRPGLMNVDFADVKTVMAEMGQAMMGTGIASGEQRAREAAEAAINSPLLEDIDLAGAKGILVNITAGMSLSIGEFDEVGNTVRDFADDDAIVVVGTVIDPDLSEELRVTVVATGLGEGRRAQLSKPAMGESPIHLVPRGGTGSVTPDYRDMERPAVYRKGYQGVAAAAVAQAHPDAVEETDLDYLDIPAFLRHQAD
The series can be described thus: Malachite green phosphate release GTPase assay. It counts as biochemical. To be noted: 1 mM GTP, HEPES buffer pH 7.5 or MES buffer pH 6.5, 50 mM KCl, 5 mM MgCl2, 28 °C; T7 loop mutant.

Substrate in series [1]: Nc1nc2c(ncn2[C@@H]2O[C@H](COP(=O)(O)OP(=O)(O)OP(=O)(O)O)[C@@H](O)[C@H]2O)c(=O)[nH]1
As to the kind of experiment: Malachite green phosphate release GTPase assay, Michaelis-Menten fit. To be noted: MES buffer pH 6.5, 50 mM KCl, 5 mM MgCl2, 28 °C, 5 μM FtsZ. It counts as biochemical, Candidatus Thiosymbion oneisti. An excerpt: Malachite green phosphate release GTPase assay, Michaelis-Menten fit on FtsZ^TO

By Km is commonly meant the concentration of substrate that gives half-maximal velocity. Usually kcat stands for the number of substrate molecules converted per active site and unit of time at saturation.

Turning to `Nc1nc2c(ncn2[C@@H]2O[C@H](COP(=O)(O)OP(=O)(O)OP(=O)(O)O)[C@@H](O)[C@H]2O)c(=O)[nH]1` [GTP], the “GTPase assay (phosphate release)” value on FtsZ^EC is given as “FtsZ^TO showed a low GTPase activity compared to FtsZ^EC (Figure S4a)”. Further, the “Malachite green phosphate release GTPase assay” value at FtsZ^TO was “Mutations I207M of the T7 loop and I273E of the H10 helix mutations reduced the GTPase”.

B1: FtsZ^TO (Candidatus Thiosymbion oneisti) (protein)
chain: MFELVDTNGQDAVIKVIGVGGGGGNAVNQMVESSIEGVDFICANTDSQALKSSNVKTILQLGADITKGLGAGADPKVGKEAALEDKERIHDALEGADMVFITAGMGGGTGTGAAPVVAQVARELGILTVAVVTKPFAFEGAKRMKVAVEGISELASHVDSLITIPNEKLLAVLGKEMSLLNSFKAANDVLLNATQGIAELITRPGLINVDFADVKTVMAEMGQAMMGTGIASGEQRAREAAEAAINSPLLEDIDLAGAKGILVNITAGMSLSIGEFDEVGNTVRDFADDDAIVVVGTVIDPDLSEELRVTVVATGLGEGRRAQLSKPAMGESPIHLVPRGGTGSVTPDYRDMERPAVYRKGYQGVAAAAVAQAHPDAVEETDLDYLDIPAFLRHQAD
notes: untagged, expressed from pJW17 (pET11b) in E. coli BL21(DE3) pLysS; anion-exchange purified
As for B1, in series [1], the Km stood at 550 ± 110 µM and the kcat amounted to 0.00817 ± 0.000833 s⁻¹.

The record behind these values is PMC8953583, “The Longitudinal Dividing Bacterium Candidatus Thiosymbion Oneisti Has a Natural Temperature-Sensitive FtsZ Protein with Low GTPase Activity” (International Journal of Molecular Sciences, 2022).
